Experimental data published in paper PMC11352945, “Anticancer Activity of Benzo[a]phenoxazine Compounds Promoting Lysosomal Dysfunction” (Cells, 2024).
In brackets after ≈: the same amount, converted by molar mass. Where two headings read alike, the source gives them in different places.

Experiments:
MCF7 cells [1] = experiment: Sulforhodamine B (SRB) cell viability assay, MCF7; format: cell-based; settings: Homo sapiens, breast cancer cell line, 48 h, read-out: IC50 (μM) ± SD, MCF7
Protocol: (§1) The cells were allowed to adhere overnight, from 12 h to 18 h, and then treated with increasing concentrations of each compound, C9, A36, and A42 (0.125 μM, 0.25 μM, 0.5 μM, 1 μM, 2.5 μM, and 5 μM), in their respective culture mediums for 48 h. In addition to a negative control that consisted only of cells and growth medium, a negative control containing the highest concentration of the solvent in which the compound was dissolved (DMSO 0.1%) was also used. The SRB assay was performed according to Marques et al.. The IC50 values were obtained using GraphPad Prism version 8.2.1 through the application of a sigmoidal dose–response nonlinear regression, after logarithmic transformation. The selectivity index was determined by dividing the IC50 value of the non-neoplastic BJ-5ta cell line by the IC50 value of the cancer cell lines (IC50 BJ-5ta/IC50 cancer cell line); furthermore, for the CRC model, a second selectivity index was also determined using the non-neoplastic NCM460 cell line (IC50 NCM460/IC50 CRC cell line). According to the results of the selectivity index, the cell line with the highest selectivity value for each of the models, CRC and breast, was selected for subsequent characterization.
(§2) Three CRC-derived cell lines, SW480 (KRAS^G12V), HCT116 (KRAS^G13D), and RKO (BRAF^V600E), harboring somatic mutations on KRAS or BRAF, and two breast-cancer-derived cell lines, MDA-MB-231 (basal like) and MCF7 (luminal A subtype), together with two non-neoplastic cell lines, NCM460 (normal colon mucosal epithelial cell line) and BJ-5ta (normal foreskin fibroblast cell line), were used to study the activity and selectivity of the three new benzo[a]phenoxazine compounds, C9, A36, and A42. All cell lines were treated with a range of drug concentrations (0.125 μM, 0.25 μM, 0.5 μM, 1 μM, 2.5 μM, and 5 μM) for 48 h, and the effect on cell viability was assessed using a sulforhodamine B assay (SRB) (Figure 2). […] In addition, the selectivity index was determined using the BJ-5ta cell line as a reference, as well as the NCM460 cell line for the CRC model (Table 1).

MCF7 cells [2] = experiment: Colony formation assay, MCF7; format: cell-based, human; settings: MCF7, IC50/2, 48 h treatment
Protocol: (§3) A colony formation assay was conducted on the RKO and MCF7 cell lines. In 6-well plates, 600 cells/mL and 800 cells/mL RKO and MCF7 cells, respectively, were seeded. Adherent cells were treated with the compounds C9, A36, and A42 at IC50/2 and IC50 concentrations or 0.1% DMSO (vehicle). As a control, untreated cells were used. Following a 48 h incubation period, the cells were twice rinsed with PBS 1× before being supplemented with new medium. After that, the cells were given 10–14 days to grow (new medium was added every 3 days). Following a PBS 1× rinse, the colonies were fixed for 30 min using 0.5% crystal violet and 6% glutaraldehyde. The ImageJ software (V1.53) was used to calculate the number of colonies. The percentage of colonies was determined and normalized for the untreated control.

MDA-MB-231 cells [3] = experiment: Sulforhodamine B (SRB) cell viability assay, MDA-MB-231; format: cell-based, human; settings: for IC50: Homo sapiens, MDA-MB-231, breast cancer cell line, 48 h, SRB, read-out: IC50 (μM) ± SD, MDA-MB-231; for Selectivity Index Cell Line IC50/BJ-5ta IC50: MDA-MB-231 versus BJ-5ta
Protocol: as §1
Three CRC-derived cell lines, SW480 (KRAS^G12V), HCT116 (KRAS^G13D), and RKO (BRAF^V600E), harboring somatic mutations on KRAS or BRAF, and two breast-cancer-derived cell lines, MDA-MB-231 (basal like) and MCF7 (luminal A subtype), together with two non-neoplastic cell lines, NCM460 (normal colon mucosal epithelial cell line) and BJ-5ta (normal foreskin fibroblast cell line), were used to study the activity and selectivity of the three new benzo[a]phenoxazine compounds, C9, A36, and A42. All cell lines were treated with a range of drug concentrations (0.125 μM, 0.25 μM, 0.5 μM, 1 μM, 2.5 μM, and 5 μM) for 48 h, and the effect on cell viability was assessed using a sulforhodamine B assay (SRB) (Figure 2). The results were used to determine the IC50 value of each compound for all the cell lines (Table 1). In addition, the selectivity index was determined using the BJ-5ta cell line as a reference, as well as the NCM460 cell line for the CRC model (Table 1).

BJ-5ta cells [4] = experiment: Sulforhodamine B (SRB) cell viability assay, BJ-5ta; format: cell-based; settings: Homo sapiens, non-neoplastic cell line, 48 h, read-out: IC50 (μM) ± SD, BJ-5ta
Protocol: as §1, §2

SW480 cells [5] = experiment: Sulforhodamine B (SRB) cell viability assay, SW480; format: cell-based; settings: Homo sapiens, CRC cell line, 48 h, read-out: IC50 (μM) ± SD, SW480
Protocol: as §1, §2

RKO cells [6] = experiment: Cell proliferation by CFSE (flow cytometry), RKO; format: cell-based, human; settings: IC50 and 2 × IC50, 24 h, 48 h, 72 h
Protocol: (§4) RKO and MCF7 cell proliferation was evaluated through flow cytometry using the Carboxyfluorescein Diacetate Succinimidyl Ester (CFSE) probe. Confluent cells were collected, rinsed with PBS 1×, and incubated with 5 μM of CFSE for 15 min at 37 °C. Then, the cells were rinsed, resuspended in growth medium, and seeded in 12-well plates at 1 × 10^5 cells/mL. After 24 h, adherent cells were treated with compounds C9, A36, and A42 at IC50 and 2 × IC50 concentrations or 0.1% DMSO (vehicle). Untreated cells were used as controls. The cells were harvested at different time points of 0 h, 24 h, […], and 72 h. The cells were then analyzed in a flow cytometer and the CFSE median fluorescence intensity was quantified using the FITC-A channel. All median values were normalized to the time point 0 h.
(§5) The benzo[a]phenoxazines C9, A36, and A42 were tested for their capacity to decrease cell growth using an optimized flow cytometry Carboxyfluorescein Diacetate Succinimidyl Ester (CFSE) labeling procedure. This procedure enables the differentiation of successive rounds of cell division, since the CFSE probe is uniformly distributed among daughter cells during cell division. As a result, a decrease in green CFSE fluorescence was employed as an indicator of cell proliferation.

MCF7 cells [7] = experiment: Cell proliferation by CFSE (flow cytometry), MCF7; format: cell-based, human
Protocol: as §4, §5

NCM460 cells [8] = experiment: Sulforhodamine B (SRB) cell viability assay, NCM460; format: cell-based; settings: Homo sapiens, non-neoplastic cell line, 48 h, read-out: IC50 (μM) ± SD, NCM460
Protocol: as §1, §2

S. cerevisiae = settings: yeast S. cerevisiae, microdilution; cited from earlier work
RKO cells [9] = experiment: Sulforhodamine B (SRB) cell viability assay, RKO; format: cell-based; settings: Homo sapiens, CRC cell line, 48 h, read-out: IC50 (μM) ± SD, RKO
Protocol: as §1, §2

HCT116 cells [10] = experiment: Sulforhodamine B (SRB) cell viability assay, HCT116; format: cell-based; settings: Homo sapiens, HCT-116, CRC cell line, 48 h, read-out: IC50 (μM) ± SD, HCT116
Protocol: as §1, §2

MCF7 cells [11] = tested on: MCF7 cells; set-up: method as in PMID 36614056; settings: lead compound, breast cancer cell line; read-out: IC50 (μM) ± SD, MCF7; cited from earlier work
HCT116 cells [12] = tested on: HCT116 cells; set-up: method as in PMID 36614056; settings: lead compound, CRC cell line; read-out: IC50 (μM) ± SD, HCT116; cited from earlier work
MDA-MB-231 cells [13] = tested on: MDA-MB-231 cells; set-up: method as in PMID 36614056; settings: lead compound, breast cancer cell line; read-out: IC50 (μM) ± SD, MDA-MB-231; cited from earlier work
RKO cells [14] = tested on: RKO cells; set-up: method as in PMID 36614056; settings: lead compound, CRC cell line; read-out: IC50 (μM) ± SD, RKO; cited from earlier work
NCM460 cells [15] = tested on: NCM460 cells; set-up: method as in PMID 36614056; settings: lead compound, non-neoplastic cell line; read-out: IC50 (μM) ± SD, NCM460; cited from earlier work
BJ-5ta cells [16] = tested on: BJ-5ta cells; set-up: method as in PMID 36614056; settings: lead compound, non-neoplastic cell line; read-out: IC50 (μM) ± SD, BJ-5ta; cited from earlier work
SW480 cells [17] = tested on: SW480 cells; set-up: method as in PMID 36614056; settings: lead compound, CRC cell line; read-out: IC50 (μM) ± SD, SW480; cited from earlier work
RKO cells [18] = experiment: Annexin V/PI assay (flow cytometry), RKO; format: cell-based, human; settings: 2 × IC50 and 4 × IC50, 48 h
Protocol: (§6) RKO and MCF7 cells were seeded in 12-well plates at a density of 1 × 10^5 cells/mL. After 24 h, the cells were treated with C9, A36, and A42 at 2 × IC50 and 4 × IC50 concentrations or 0.1% DMSO (vehicle). Untreated cells were used as controls. After 48 h, floating and adherent cells were collected. The cells were resuspended in […] of binding buffer and treated for 15 min in the dark with 5 μL of Annexin V-FITC (Detection Kit-ab14085) and 5 μL of Propidium Iodide (50 μg/mL). The samples were subjected to flow cytometry analysis, PI fluorescence was detected using the ECD-A channel, and Annexin V fluorescence was detected using the FITC-A channel.
(§7) One of the main goals of clinical oncology is the development of compounds and treatments capable of selectively eliminating cancer cells. In this sense, we next evaluated the capability of the compounds to induce cell death in both cell lines. For this, we performed a flow cytometry analysis using annexin V-FITC and propidium iodide PI double staining. The conjugation of these two probes allowed for the discrimination of viable (negative for both), early apoptotic (annexin + and PI−), late apoptotic (annexin+ and PI+), and necrotic (annexin− and PI+) cells. […] Both flouting and attached cells were harvested and double stained.

MCF7 cells [19] = experiment: Annexin V/PI assay (flow cytometry), MCF7; format: cell-based, human; settings: MCF7, 2 × IC50 and 4 × IC50, 48 h
Protocol: as §6, §7

RKO cells [20] = experiment: Colony formation assay, RKO; format: cell-based, human; settings: 10-14 days growth
Protocol: as §3

| IC50 (MCF7 cells [1]) | IC50 (MDA-MB-231 cells [3]) | IC50 (SW480 cells [5]) | IC50 (HCT116 cells [10]) | Compound | Colonies detected (MCF7 cells [2]) | Selectivity Index Cell Line IC50/BJ-5ta IC50 (MDA-MB-231 cells [3]) | IC50 (BJ-5ta cells [4]) | IC50 (NCM460 cells [8]) | MIC (minimum inhibitory concentration) (S. cerevisiae) | IC50 (RKO cells [9]) | also measured |
| --- | --- | --- | --- | --- | --- | --- | --- | --- | --- | --- | --- |
| 0.63 ± 0.05 µM | 1.01 ± 0.09 µM | 0.72 ± 0.03 µM | 1.28 ± 0.06 µM | CCCNc1cc2oc3cc(=[N+](CCC)CCC)ccc-3nc2c2ccccc12 [A36] | reduced number of small colonies | 2.41 | 2.44 ± 0.18 µM | 2.06 ± 0.25 µM | 1.56 µM | 0.37 ± 0.03 µM | Effect on cell proliferation (CFSE) (RKO cells [6]): highest effect; CFSE median fluorescence normalized to T0 (MCF7 cells [7]; MCF7, 2 × IC50, 24 h (untreated 37%)): 62%; CFSE median fluorescence normalized to T0 (MCF7 cells [7]; MCF7, 2 × IC50, 48 h (untreated 21%)): 59%; CFSE median fluorescence normalized to T0 (MCF7 cells [7]; MCF7, 2 × IC50, 72 h (untreated 10%)): 47%; Effect on cell proliferation (CFSE) (MCF7 cells [7]; MCF7, IC50 and 2 × IC50, 24 h, 48 h, 72 h): highest effect; CFSE median fluorescence normalized to T0 (MCF7 cells [7]; MCF7, IC50 concentration, 24 h (untreated 37%)): 53%; CFSE median fluorescence normalized to T0 (MCF7 cells [7]; MCF7, IC50 concentration, 48 h (untreated 21%)): 50%; CFSE median fluorescence normalized to T0 (MCF7 cells [7]; MCF7, IC50 concentration, 72 h (untreated 10%)): 41% |
| – | – | – | – | CCN=c1cc2oc3cc(NCCCC(=O)OCC)c4ccccc4c3nc-2cc1C [BaP1] | – | 1.05 | – | – | 25 µM (≈ 10.4 µg/mL) | – | IC50 (MCF7 cells [11]): 0.92 ± 0.07 µM; IC50 (HCT116 cells [12]): 1.9 ± 0.09 µM; IC50 (MDA-MB-231 cells [13]): 1.73 ± 0.03 µM; IC50 (RKO cells [14]): 1.4 ± 0.08 µM; IC50 (NCM460 cells [15]): 12.8 ± 2.05 µM; IC50 (BJ-5ta cells [16]): 1.83 ± 0.06 µM; IC50 (SW480 cells [17]): 5.6 ± 0.19 µM |
| 0.54 ± 0.02 µM | 0.79 ± 0.03 µM | 0.78 ± 0.07 µM | 1.13 ± 0.07 µM | ClCCCN=c1cc2oc3c4c5c(cc3nc-2c2ccccc12)CCCN5CCC4 [A42] | reduced number of small colonies | 3.26 | 2.58 ± 0.19 µM | 2.59 ± 0.31 µM | 0.78 µM (≈ 0.326 µg/mL) | 0.29 ± 0.01 µM | Cell death induction (Annexin V/PI) (RKO cells [18]): most powerful compounds; Cell death induction (Annexin V/PI) (MCF7 cells [19]): most powerful compounds; Reduction of the colonies formed (RKO cells [20]; IC50, 48 h treatment): > 90%; Reduction of the colonies formed (RKO cells [20]; IC50/2, 48 h treatment): more than 75% |
